How the values were obtained:
[1] = test system: Tumor JH03 (pancreatic tumor); assay: Direct pancreatic cancer derived xenograft, Tumor JH03; type: in vivo, mice; conditions: Gemcitabine 100 mg/kg 2 times/week for 4 weeks, ON-01910.Na 250 mg/kg/day for 4 weeks
From the text: (§1) Resected pancreatic adenocarcinomas are routinely implanted in nude mice at the Johns Hopkins Medical Institutions as a method to obtain enriched populations of neoplastic cells under an IRB-approved protocol from residual pancreatic cancer tumors. Briefly, tumor specimens from Whipple resection specimens were divided into 2-3 mm^3 pieces in antibiotic-containing RPMI media. Pieces of non-necrotic tissue were selected and immersed in Matrigel. Under anesthesia with isofluorane, tumors were implanted into five-to-six week-old female athymic (nu/nu) mice purchased from Harlan (Harlan Laboratories, Washington, D.C.). […] Tumor size was determined using calipers every four days for the course of the experiment. Relative tumor growth inhibition (TGI) was calculated as TGI=(Ti−T0/Ci−C0), where Ti and Ci represent tumor size in the treated and control group at 28-day, respectively; […] Experiments were terminated on day 28. […] Pancreatic tumors were implanted in mice as detailed above. Mice were treated with gemcitabine alone, ON-01910-Na alone, or a combination thereof as indicated. Tumor size was measured at four day intervals.

[2] = test system: Plk1; assay: Plk1 expression analysis by RT-PCR in xenograft tumors harvested on day 28; type: in vivo, mice; conditions: JH03 tumor, day 28, compared with the other tumors
From the text: Total RNA was extracted from cell pellets (and tumors) using the RNeasy™ Mini Kit (Qiagen, Valencia, Calif.). cDNA was synthesized using iScript cDNA synthesis kit (Bio-Rad, Hercules, Calif.) following the manufacturer's instructions. Relative quantification of Plk1 and ubiquitin C (UBC, used as housekeeper gene) mRNA was achieved using an iCycler iQ real-time PCR detection system (Bio-Rad) using ABI Taqman probes (Foster City, Calif.). The experiments were repeated twice and samples were run in quadruplicate.
On day 28, animals were euthanized and tumors were removed for Plk1 expression analysis by RT-PCR using standard protocols. Plk1 expression levels were expressed relative to expression in non-drug treated control.
On day 28, tumors were harvested and analyzed for Plk1 expression (FIG. 2C).

[3] = test system: Tumor 41 (pancreatic tumor); assay: Direct pancreatic cancer derived xenograft, Tumor 41; type: in vivo, mice; conditions: Gemcitabine 100 mg/kg 2 times/week for 4 weeks, ON-01910.Na 250 mg/kg/day for 4 weeks
From the text: as §1

[4] = test system: Tumor 28 (pancreatic tumor); assay: Direct pancreatic cancer derived xenograft, Tumor 28; type: in vivo, mice; conditions: Gemcitabine 100 mg/kg 2 times/week for 4 weeks, ON-01910.Na 250 mg/kg/day for 4 weeks
From the text: as §1

[5] = test system: Solid tumors including prostate, breast, and lung; conditions: oral; cited from earlier work

| Compound | susceptibility of tumor to treatment (tumor growth) [1] | Plk1 expression in tumor after exposure [2] | susceptibility of tumor to treatment (tumor growth) [3] | susceptibility of tumor to treatment (tumor growth) [4] | maximum tolerated dose [5] |
| --- | --- | --- | --- | --- | --- |
| Nc1ccn(C2OC(CO)C(O)C2(F)F)c(=O)n1 (centres unmarked) [gemcitabine, 4-amino-1-[3,3-difluoro-4-hydroxy-5-(hydroxymethyl)tetrahydrofuran-2-yl]-1H-pyrimidin-2-one] | susceptible | lowest expression of Plk1 | susceptible | resistant |  |
| CCCCCCCCCCCCCCCC(=O)Nc1ccn([C@@H]2O[C@H](CO)[C@@H](O)[C@@H]2C#N)c(=O)n1 [sapacitabine] |  |  |  |  | dose 160 mg/m^2/day |
